Source: patent publication US6143910A, “Methods for preparation and use of 1α, 24(S) -dihydroxy vitamin D2” (priority 1998, dated 2000)
Entries after “also recorded” stand apart in the source; their conditions may differ. Where two headings read alike, the source gives them in different places.

How the values were obtained:
vitamin D receptor (VDR) = target: T1, vitamin D receptor (VDR) (Homo sapiens, UniProt P11473); assay: Vitamin D-dependent transcriptional activation, growth hormone production in co-transfected COS-1 cells; type: cell-based
T1 sequence (P11473 1-427): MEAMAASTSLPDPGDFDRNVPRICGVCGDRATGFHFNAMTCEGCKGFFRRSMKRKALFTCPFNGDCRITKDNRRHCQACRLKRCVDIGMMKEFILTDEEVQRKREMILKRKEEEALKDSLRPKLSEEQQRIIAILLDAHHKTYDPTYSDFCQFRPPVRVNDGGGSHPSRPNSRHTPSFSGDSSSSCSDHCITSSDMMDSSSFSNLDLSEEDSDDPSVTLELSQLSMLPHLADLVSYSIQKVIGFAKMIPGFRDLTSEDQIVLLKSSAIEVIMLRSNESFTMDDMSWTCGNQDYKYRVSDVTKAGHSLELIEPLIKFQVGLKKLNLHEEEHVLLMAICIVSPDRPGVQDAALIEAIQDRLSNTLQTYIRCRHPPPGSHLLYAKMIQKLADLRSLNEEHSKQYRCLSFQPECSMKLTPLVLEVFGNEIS
Experimental: The biological activity in vitro of chemically synthesized 1α,24(S)-(OH)2 D2 and 1α,24(R)-(OH)2 D2 was measured using a vitamin D-dependent transcriptional activation model system in which a vitamin D receptor (VDR)-expressing plasmid pSG5-hVDR1/3and a plasmid p(CT4)^4 TKGH containing a Growth Hormone (GH)-gene, under the control of a vitamin D-responsive element (VDRE) were co-transfected into Green monkey kidney, COS-1 cells. DNA's for these two vectors were supplied by Dr. Mark Haussler, Department of Biochemistry, University of Arizona, Tucson, Ariz.
Tranfected cells were incubated with vitamin D metabolites and growth hormone production was measured.

bovine thymus VDR = target: T2, bovine thymus VDR (Bos taurus, UniProt Q28037); assay: Radioreceptor assay with bovine thymus VDR (Incstar), displacement of 3H-1α,25-(OH)2 D3; type: binding
T2 construct: commercially available kit of bovine thymus VDR; purchased Incstar (Stillwater, Minn.); host or cells: bovine thymus
T2 sequence (Q28037 1-426): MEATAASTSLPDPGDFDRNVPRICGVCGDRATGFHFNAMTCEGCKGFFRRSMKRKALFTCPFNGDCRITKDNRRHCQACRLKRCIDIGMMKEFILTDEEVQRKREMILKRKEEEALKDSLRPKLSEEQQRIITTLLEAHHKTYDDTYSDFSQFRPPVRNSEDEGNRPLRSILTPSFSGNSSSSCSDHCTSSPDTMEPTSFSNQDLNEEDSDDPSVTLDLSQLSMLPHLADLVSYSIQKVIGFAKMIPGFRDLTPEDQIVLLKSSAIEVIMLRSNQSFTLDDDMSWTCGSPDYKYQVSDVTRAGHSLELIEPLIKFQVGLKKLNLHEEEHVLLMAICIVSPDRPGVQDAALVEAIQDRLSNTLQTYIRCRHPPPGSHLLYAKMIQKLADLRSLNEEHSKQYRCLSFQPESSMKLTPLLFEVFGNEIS
Source text: Purified 1α,24(S)-(OH)2 D2 was quantitated by photodiode array spectrophotometry and assayed in the radioreceptor assay.
The purified 1α,24(R)-(OH)2 D2 and 1α,24(S)-(OH)2 D2 epimers were quantitated by ultraviolet spectroscopy. The concentration of 1α,24(R)-(OH)2 D2 required to produce the same displacement of ^3 H-1α,25-(OH)2 D3 tracer from the receptor was 20 to 30 times that required for 1α,24(S)-(OH)2 D2, as shown in FIG. 4.

[1] = target: T3, vitamin D serum binding protein (DBP) (Rattus norvegicus, UniProt P04276); assay: Affinity for vitamin D serum binding protein using vitamin D deficient rat serum
T3 sequence (P04276 17-476): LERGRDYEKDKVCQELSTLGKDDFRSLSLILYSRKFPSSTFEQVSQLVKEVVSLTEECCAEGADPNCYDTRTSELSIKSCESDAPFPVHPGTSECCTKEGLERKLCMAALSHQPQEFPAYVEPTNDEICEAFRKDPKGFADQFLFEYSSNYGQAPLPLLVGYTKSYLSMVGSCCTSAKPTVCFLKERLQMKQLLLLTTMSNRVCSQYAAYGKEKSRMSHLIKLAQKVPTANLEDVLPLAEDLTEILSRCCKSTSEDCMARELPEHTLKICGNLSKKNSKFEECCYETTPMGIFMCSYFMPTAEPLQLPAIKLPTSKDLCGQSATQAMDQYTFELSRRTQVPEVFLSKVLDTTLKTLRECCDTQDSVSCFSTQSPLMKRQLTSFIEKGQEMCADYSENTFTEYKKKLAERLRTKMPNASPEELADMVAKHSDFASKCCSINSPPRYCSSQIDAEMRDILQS
Source text: In addition, the weak binding by the DBP was indicative of more rapid clearance, allowing for low toxicity.

[2] = Dose ranging study in postmenopausal osteoporotic women; type: in vivo, human; settings: oral 0.5 to 8.0 μg/day, escalated weekly over five weeks
Experimental: Twenty postmenopausal osteoporotic women are enrolled in an open label study.
On admission to the study, all patients receive instruction on selecting a daily diet containing 400 to 600 mg of calcium. Compliance to this diet is verified at weekly intervals by 24-hour food records and by interviews with each patient.
All patients complete a one-week baseline period, a five-week treatment period, and a one-week post-treatment observation period. During the treatment period, patients orally self-administer 1α,24(S)-dihydroxyvitamin D2 at an initial dose of 0.5 μg/day for the first week, and at successively higher doses of 1.0, 2.0, 4.0, and 8.0 μg/day in each of the following four weeks. All doses are administered before breakfast.
Blood and urine chemistries are monitored on a weekly basis throughout the study. Key blood chemistries include fasting serum levels of-calcium, phosphorus, osteocalcin, creatinine, and blood urea nitrogen. Key urine chemistries include 24-hour excretion of calcium, phosphorus, and creatinine.

[3] = Preventive treatment of bone mass loss in postmenopausal osteoporotic women; type: in vivo, human; settings: at or above 1.0 μg/day, 24 to 36 months
Experimental: A clinical study is conducted with postmenopausal osteoporotic out-patientshaving ages between 55 and 75 years. The study involves up to 120 patients randomly divided into three treatment groups and continues for 24 to 36 months. Two of the treatment groups receive constant dosages of 1α,24(S)-dihydroxy vitamin D2 (u.i.d.; two different dose levels at or above 1.0 μg/day) and the other group receives a matching placebo. All patients maintain a normal intake of dietary calcium (500 to 800 mg/day) and refrain from using calcium supplements. Efficacy is evaluated by pre- and post-treatment comparisons of the patient groups with regard to (a) total body calcium retention, and (b) radial and spinal bone mineral density as determined by dual-photon absorptiometry (DPA) or dual-energy x-ray absorptiometry (DEXA). Safety is evaluated by comparisons of urinary hydroxyproline excretion, serum and urine calcium levels, creatinine. clearance, blood urea nitrogen, and other routine determinations.

- Activity in the transcriptional activation system compared with 1α,24(R)-(OH)2 D2 (vitamin D receptor (VDR)): significantly more activity
- Binding affinity for the vitamin D serum binding protein (in words) [1]: relatively poor binding affinity
- Binding affinity for the vitamin D serum binding protein (in words) ([1]; listed as 1α,24(S)-dihydroxy vitamin D2): more weakly than does 1,25-(OH)2 D3
Compound: C=C1/C(=C\C=C2/CCC[C@]3(C)[C@@H]([C@H](C)/C=C/[C@@](C)(O)C(C)C)CC[C@@H]23)C[C@@H](O)C[C@@H]1O [1α,24(S)-(OH)2 D2, 1α,24(S)-dihydroxy Vitamin D2]
- Affinity for VDR relative to 1α,25-(OH)2 D3 (bovine thymus VDR): two-fold less competitive; also recorded: two-fold lower affinity
- 24-hour urinary calcium levels [2]: modest increases
- Routinely monitored serum parameters [2]: no effect on any routinely monitored serum parameters
- Serum osteocalcin levels [2]: increases in serum osteocalcin levels
- Urinary excretion of hydroxyproline [2]: nor does it increase urinary excretion of hydroxyproline
- Incidence of hypercalcemia or hypercalciuria [3]: insignificant incidence
- Total body calcium, radial and spinal bone densities versus placebo [3]: significantly higher
